In patent publication US11046743B2 (Antaros Medical AB, priority 2015, dated 2021):

Test: Chemical stability in buffer, UPLC purity
Type: physicochemical

Substance | Purity after 7 days (pH 4.6, 4° C.) [%] | Purity after 14 days (pH 4.6, 4° C.) [%] | Purity after 7 days (pH 4.6, 25° C.) [%] | Purity after 14 days (pH 4.6, 25° C.) [%] | Purity after 7 days (pH 4.6, 40° C.) [%] | Purity after 14 days (pH 4.6, 40° C.) [%] | Purity after 7 days (pH 7.4, 4° C.) [%] | Purity after 14 days (pH 7.4, 4° C.) [%] | Purity after 7 days (pH 7.4, 25° C.) [%] | Purity after 14 days (pH 7.4, 25° C.) [%] | Purity after 7 days (pH 7.4, 40° C.) [%] | Purity after 14 days (pH 7.4, 40° C.) [%]
Tza-SQGTFTSDYSKQLESRRAQEFIEWLLAGGPESGAPPPSC(VS-DO3A(Ga))-NH2 [SEQ ID NO 8] | 100 | 99 | 99 | 97 | 94 | 84 | 97 | 94 | 81 | 67 | 47 | 33
Tza-SQGTFTSDYSKQLDEQRAQEFIEWLLATGPESGAPPPSC(VS-DO3A)-NH2 [SEQ ID NO 49] | 100 | 99 | 97 | 97 | 92 | 91 | 98 | 96 | 90 | 84 | 64 | 53
Tza-S-Q-G-T-F-T-S-D-I-S-K-Q-Nle-ESRRAQEFIEWLLATGPESGAPPPSC(VS-DO3A(Ga))-NH2 [SEQ ID NO 36] | 100 | 99 | 99 | 97 | 94 | 84 | 97 | 94 | 81 | 67 | 47 | 33

The next lines start with the values.

Purity after 7 days (pH 4.6, 4° C.) [%] | Purity after 14 days (pH 4.6, 4° C.) [%] | Purity after 7 days (pH 4.6, 25° C.) [%] | Purity after 14 days (pH 4.6, 25° C.) [%] | Purity after 7 days (pH 4.6, 40° C.) [%] | Purity after 14 days (pH 4.6, 40° C.) [%] | Purity after 7 days (pH 7.4, 4° C.) [%] | Purity after 14 days (pH 7.4, 4° C.) [%] | Purity after 7 days (pH 7.4, 25° C.) [%] | Purity after 14 days (pH 7.4, 25° C.) [%] | Purity after 7 days (pH 7.4, 40° C.) [%] | Purity after 14 days (pH 7.4, 40° C.) [%] | Substance
100 | 99 | 97 | 97 | 92 | 91 | 98 | 96 | 90 | 84 | 64 | 53 | Tza-SQGTFTSDYSKQLESRRAQEFIEWLLAGGPESGAPPPSC(VS-DO3A)-NH2 [SEQ ID NO 6]
100 | 99 | 99 | 97 | 94 | 84 | 97 | 94 | 81 | 67 | 47 | 33 | Tza-SQGTFTSDYSKQLDEQRAQEFIEWLLATGPESGAPPPSC(VS-DO3A(Ga))-NH2 [SEQ ID NO 50]
100 | 99 | 97 | 97 | 92 | 91 | 98 | 96 | 90 | 84 | 64 | 53 | Tza-S-Q-G-T-F-T-S-D-I-S-K-Q-Nle-ESRRAQEFIEWLLATGPESGAPPPSC(VS-DO3A)-NH2 [SEQ ID NO 35]
